Laboratory results reported in paper PMC11001641, “Iron–sulfur cluster assembly scaffold protein IscU is required for activation of ferric uptake regulator (Fur) in Escherichiacoli” (The Journal of Biological Chemistry, 2024).

What was measured:
E. coli FhuF = molecular target: T1, E. coli FhuF (Escherichia coli, UniProt P39405); assay: UV-Vis absorption of purified protein; assay type: binding; conditions: pH 8.0; 500 mM NaCl; protein from wild-type E. coli grown in M9 with 2 uM iron; bound during expression
T1 construct: his-tagged, expressed from pBAD in E. coli MC4100
T1 sequence (P39405 whole entry): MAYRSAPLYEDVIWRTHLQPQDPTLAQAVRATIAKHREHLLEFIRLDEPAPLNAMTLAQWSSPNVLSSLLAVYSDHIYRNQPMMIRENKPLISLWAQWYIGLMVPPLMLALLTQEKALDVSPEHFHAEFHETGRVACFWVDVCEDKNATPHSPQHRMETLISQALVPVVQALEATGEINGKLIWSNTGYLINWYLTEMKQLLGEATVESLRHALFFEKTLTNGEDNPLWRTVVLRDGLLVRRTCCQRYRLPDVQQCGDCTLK

E. coli ferredoxin (Fdx) = molecular target: T2, E. coli ferredoxin (Fdx) (Escherichia coli, UniProt P0A9R4); assay: UV-Vis absorption of purified protein; assay type: binding; conditions: pH 8.0; 500 mM NaCl; protein from wild-type E. coli grown in M9 with 2 uM iron; bound during expression
T2 construct: his-tagged, expressed from pBAD in E. coli MC4100; isc operon ferredoxin
T2 sequence (P0A9R4 2-111): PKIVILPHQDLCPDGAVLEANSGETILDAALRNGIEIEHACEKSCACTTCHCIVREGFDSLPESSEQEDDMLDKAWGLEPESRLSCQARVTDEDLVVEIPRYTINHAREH

Which “UV-Vis absorption of purified protein” value (E. coli FhuF) does the source give for `[S]1[Fe][S][Fe]1` [[2Fe-2S] cluster] here?
The value was “[2Fe-2S] cluster assembly in the E. coli siderophore-reductase FhuF”.

And the “UV-Vis absorption of purified protein” value (E. coli ferredoxin (Fdx))?
The value was “the E. coli ferredoxin, a [2Fe-2S] cluster-containing protein”.
